Laboratory results: patent US20060111289A1, “Compositions and methods of using Alpha-fetoprotein growth inhibitory peptides” (Serometrix, LLC,, priority 2004, published 2006)
Where two headings read alike, the source gives them in different places. Where a SMILES comes first, the peptide text is derived from it.

Key:
NCI-H226 = NCI-H226 (non-small cell lung, CA)
60 cancer cell lines = assay: NCI screen of 60 cancer cell lines, 2 day versus 6-day sulforhodamine assay; format: cell-based, human; conditions: nine different cancer cell types
Text: These findings detailed the in vitro results of the GIP challenges against 60 different cell culture lines representing a variety of human cancers.

Molt-4 = Molt-4 (white blood cell, leukemia); 2-Day Assay; Conc. 10^−2 Molar
K-562 = K-562 (white blood cell, leukemia); 6-Day Assay; Conc. 10^−7 Molar
T-47D = T-47D (breast, AC)
OVCAR-3 = OVCAR-3 (ovary, AC); 2-Day Assay; Conc. 10^−2 Molar
UACC-257 = UACC-257 (melanoma, squamous); 2-Day Assay; Conc. 10^−2 Molar
Colo-205 = Colo-205 (colon, AC)
MCF-7 = MCF-7 (breast, AC); 2-Day Assay; Conc. 10^−2 Molar
ACHN = ACHN (kidney, renal CA); 2-Day Assay; Conc. 10^−2 Molar
PC-3 = PC-3 (prostate, AC); 2-Day Assay; Conc. 10^−1 Molar
IGROV1 = IGROV1 (ovary, AC); 2-Day Assay; Conc. 10^−1 Molar
MDA-MB-435 = MDA-MB-435 (breast, AC); 2-Day Assay; Conc. 10^−1 Molar
RXF-393 = RXF-393 (kidney, renal CA); 2-Day Assay; Conc. 10^−1 Molar
HCC-299 = HCC-299 (colon, AC); 2-Day Assay; Conc. 10^−1 Molar
U-251 = U-251 (central nervous system, CA); 2-Day Assay; Conc. 10^−2 Molar
DU-145 = DU-145 (prostate, AC); 2-Day Assay; Conc. 10^−1 Molar
SK-MeL-5 = SK-MeL-5 (melanoma, squamous)
SF-539 = SF-539 (central nervous system, CA)
NCI-H460 = NCI-H460 (non-small cell lung, CA); 2-Day Assay; Conc. 10^−2 Molar
CCRF-CEM = CCRF-CEM (white blood cell, leukemia)
MDA-MB-231 = MDA-MB-231 (breast, AC); 6-Day Assay; Conc. 10^−7 only Molar
[1] = system: human kidney tumor cell line

CC[C@H](C)[C@H](NC(=O)[C@H](CS)NC(=O)[C@H](CC(C)C)NC(=O)[C@H](Cc1c[nH]cn1)NC(=O)CNC(=O)[C@@H](NC(=O)[C@@H](NC(=O)[C@@H](NC(=O)[C@H](CC(=O)O)NC(=O)[C@H](C)NC(=O)[C@H](C)NC(=O)CNC(=O)[C@H](CCC(=O)O)NC(=O)CNC(=O)[C@H](CS)NC(=O)[C@H](C)NC(=O)[C@H](CC(C)C)NC(=O)[C@H](CC(C)C)NC(=O)[C@H](CCCCN)NC(=O)[C@H](CC(=O)O)NC(=O)[C@H](CCC(=O)O)NC(=O)[C@H](CO)NC(=O)[C@@H](N)CC(C)C)[C@@H](C)CC)[C@@H](C)CC)[C@@H](C)CC)C(=O)N[C@@H](CCCNC(=N)N)C(=O)N[C@@H](Cc1c[nH]cn1)C(=O)N[C@@H](CCC(=O)O)C(=O)N[C@@H](CCSC)C(=O)N[C@H](C(=O)N1CCC[C@H]1C(=O)N[C@H](C(=O)N[C@@H](CC(N)=O)C(=O)N1CCC[C@H]1C(=O)NCC(=O)N[C@H](C(=O)O)C(C)C)C(C)C)[C@@H](C)O [P149] (H-LSEDKLLACGEGAADIIIGHLCIRHEMTPVNPGV-OH)
% Growth Inhibition (NCI-H226; 2-Day Assay, Conc. 10^−2 Molar): 5% | % Growth Inhibition (NCI-H226; 6-Day Assay, Conc. 10^−5 Molar): 5-10% | Number of the 60 cancer cell lines against which the peptide appeared cytostatic (not cytotoxic) (60 cancer cell lines): 38 | % Growth Inhibition (Molt-4): 5% | % Growth Inhibition (K-562): 45% | % Growth Inhibition (T-47D; 2-Day Assay, Conc. 10^−2 Molar): 10% | % Growth Inhibition (T-47D; 6-Day Assay, Conc. 10^−5 Molar): 25% | % Growth Inhibition (OVCAR-3): 20% | % Growth Inhibition (UACC-257): 20% | % Growth Inhibition (Colo-205; 2-Day Assay, Conc. 10^−2 Molar): 10% | % Growth Inhibition (Colo-205; 6-Day Assay, Conc. 10^−5 Molar): 10% | % Growth Inhibition (MCF-7): 20% | % Growth Inhibition (ACHN): 20% | % Growth Inhibition (PC-3): 5% | % Growth Inhibition (IGROV1): 10% | % Growth Inhibition (MDA-MB-435): 20% | % Growth Inhibition (RXF-393): 30% | % Growth Inhibition (HCC-299): 20% | % Growth Inhibition (U-251): 15% | % Growth Inhibition (DU-145): 10% | % Growth Inhibition (SK-MeL-5; 2-Day Assay, Conc. 10^−2 Molar): 5% | % Growth Inhibition (SK-MeL-5; 6-Day Assay, Conc. 10^−5 Molar): 10% | % Growth Inhibition (SF-539; 2-Day Assay, Conc. 10^−2 Molar): 10% | % Growth Inhibition (SF-539; 6-Day Assay, Conc. 10^−5 Molar): 15-20% | % Growth Inhibition (NCI-H460): 30% | % Growth Inhibition (CCRF-CEM; 2-Day Assay, Conc. 10^−2 Molar): 5% | % Growth Inhibition (CCRF-CEM; 6-Day Assay, Conc. 10^−5 Molar): 5-10% | % Growth Inhibition (MDA-MB-231): 80% | % Inhibition Of Activity: Kidney tumor growth [1]: 70%
